Experimental data reported in patent US9427433B2, “Methods and compositions for enhancing fertility and/or inhibiting pregnancy failure and restoring glucose tolerance” (Queen's University at Kingston, priority 2011, dated 2016).

Experiments:
[1] = test system: high fat fed female NZO mice; experiment: Ovarian histology of macrolide-treated chronically high fat fed NZO mice; assay type: in vivo, mouse; conditions: chronically high fat diet fed NZO mice
Description: Statistical differences between groups were measured by two-way analysis of variance (ANOVA) followed by Bonferroni post-hock t-test comparing effect of all tested macrolides on mean follicular structure counts/unit area at 95% confidence. Scale bars=200 μm for B, D, F, G, H, I, J and 50 μm for A, C, E. N=10 (HFD-NZO), 6 per treatment group. A, C and E are higher magnifications of B, D and F respectively. * denoting ovarian cyst(s).
(§1) For the comparative evaluation of other macrolide drugs to tacrolimus, mice starting at 7 weeks of age were maintained on the high fat diet for a total of 13 weeks of study period. Mice were entered into the experiments when determined to be glucose intolerant as described above. Methods of drug administration and other experimental methods were as described above.

[2] = test system: NZO mice fed a high fat diet; experiment: Implantation rate and resorption, comparison of macrolides; assay type: in vivo, mouse; conditions: vs vehicle
Description: as §1
Peri-implantation (E4.5) and post-implantation (E6.5) pregnant and/or pseudopregnant (E4.5bid and E6.5bid) mouse uteri were prepared after mating respectively with fertile and/or vasectomized males as previously described (Herington et al. Endocrinol 2009 150: 4404-4413). The morning of vaginal plug detection was considered as gestational day 0.5 (E0.5 or Gd.0.5). An average number of twenty Concanavalin A(ConA)-coated sepharose beads (average size of 0.1 mm-diameter) (Sigma-Aldrich, Burlington, Ontario, Canada) was injected into the lumen of the left uterine horn of anesthetized animals between hours 13:00 and 16:00 on day 2.5 of pseudopregnancy according to the procedure described by Herington et al. (Endocrinol, 2009 150: 4404-4413). With the use of Ketamine/Xyalzine anesthesia and cardiac puncture, all animals were sacrificed at the age of 16-18 weeks between the morning hours 09:00-11:00. Pregnant and pseudopregnant mice were sacrificed in the morning of days 4.5 and 6.5 of their respective pregnancy. Blood samples were collected from all animals and were let stand for 1 hour at room temperature before isolation of the serum. Serum samples were stored at −80° C. until they were analyzed for their steroid hormones and lipid contents by appropriate laboratory procedures such as radio-immunoassay (RIA) all of which were conducted at the Department of Clinical Chemistry (Kingston General Hospital, Kingston, Ontario, Canada). Ovaries, oviducts and uteri were carefully dissected out of carcasses and were placed in ice-cold phosphate buffered saline (PBS)-containing petri dishes. Under a dissecting microscope, uteri were carefully isolated from their attached uterine tubes, trimmed of all mesenteric fat and were immediately weighed. The numbers of corpora lutea and implantation sites (viable and resorbed) were counted, respectively, from E4.5 and E6.5 pregnant mouse ovaries and uteri. For protein and RNA extraction, virgin uteri and segments of uterine horns containing inter-implantation sites of pregnant and pseudopregnant uteri were transected and snapped frozen in liquid nitrogen.
Examination of external morphological features of uteri of pregnant mice, including counts of implantation sites and photography was performed using a computerized dissecting microscope (Leica Diagnostic Instruments, USA) and the image acquisition and analytic software (SPOT 2.2.0). Percentage of peri-implantation embryo loss was calculated as described by Bindali and Kaliwal (Ind. Health, 2002 40:191-197), using the formula: % Preimplantation loss=[Total number of corpora lutea−Total number of implantation]/Total number of corpora lutea. Immunohistochemical localization and assessment of microscopic morphological features of implantation and inter-implantation sites in normoglycemic and diabetic NOD mice were performed on methacarn (60% methanol, 30% chloroform and 10% acetic acid)-fixed specimens. […]

[3] = test system: NZO mice fed a high fat diet; experiment: Fasting serum glucose, fasting serum insulin and glucose tolerance, comparison of macrolides; assay type: in vivo, mouse
Description: (§2) Female mice were administered tacrolimus (0.1 mg/kg or 0.05 mg/kg, n=6/group), vehicle (n=10), pimecrolimus (0.1 mg/kg, n=6) or sirolimus (0.1 mg/kg, n=6) subcutaneously every other day for 3 weeks.
as §1
Glucose Tolerance Test (GTT): was performed according to standard protocol (Ayala et al 2010). Briefly, basal glucose levels were measured for conscious mice individually caged in 1000 cc plastic mouse caging using a one-touch ultra glucose strips and meter (Acqui-check Aviva, Roche, Montreal, Canada) and approximately 30 microliters of blood obtained via tail venipuncture prior to fasting for six hours in cages equipped with hardwood bedding. Fasting blood glucose was recorded at the end of the six hours fasting period. Mice were then tested for oral glucose tolerance (OGTT) or for insulin sensitivity (Si). For OGTT alert mice were then given 20% D-glucose (2 g/kg body weight) sterile syrup administered orally. For Si experiments mice were given 20% D-glucose (2 g/kg body weight) sterile syrup by intraperitoneal administration through a 1 ml D29 gage “½” insulin syringe (Fisher Scientific, Montreal, Canada). Then after, blood glucose was recorded at 15, 30, 45, 60, 90 and 120 minutes respectively. For Si experiments blood glucose was determined only at 15 minutes. Glucose tolerance graphs were generated by blotting mean±standard error of the mean (SEM) of the recorded glucose data per mouse per minute collection time. One way analysis of variance (ANOVA) followed by student t-test was performed to determine alpha values for statistical differences among mean blood glucose values across experimental mice groups.
Fasting immuno-reactive mouse insulin levels were quantitatively determined in citrated platelet-free plasma samples obtained from 6 hours-fasting mice using an Ultrasensitive mouse Insulin Eliza kit (#90080, Crystal chem., IL, USA) according to the manufacturer instructions. Briefly, platelet-free plasma were isolated from freshly obtained citrated whole blood samples of fasting mice and the provided insulin standards were incubated overnight on a shaking platform at 4 C^0 in a 96 wells plate coated with Guinea pig anti-insulin. Afterwards, unbound sample materials were thoroughly washed with the supplied wash buffers and the bound guinea pig anti-insulin/mouse insulin complex immobilized to the microplate wells were incubated with Horseradish peroxidase (HRP)-conjugated anti-insulin antibody for 40 minutes at room temperature with continuous agitation. Excess unbound HRP-conjugated anti-insulin antibodies were then washed excessively with wash buffers and the HRP-mediated color reaction was developed with the addition of 3,3′,5,5′ tetramethylbenzidine (TMB) substrate solution. The amount of insulin (ng/ml) present in the test samples were then measured via interpolation using the standard curve generated by plotting absorbance (at A^0450-A^0635) versus the corresponding concentration of a wide range (0.1-12.8 ng/ml) of mouse insulin standards according to the provider's instructions. Graphic representation of differences in mean±sem of plasma insulin among different groups of mice were blotted using Prism5 (La Jolla, Calif., USA) software and statistically significant differences (at 95% confidence) were calculated for the different test groups of mice using one way ANOVA followed by Bonferroni modified student t-test comparing differences between individual experimental groups.

[4] = test system: type 2 diabetes NZO mouse model; experiment: HOMA-IR, HOMA-B and insulin sensitivity index (Si); assay type: in vivo
Description: as §2
HOMA IR=fasting glucose (mmol/L)×fasting insulin ([…])/22.5 according to the method of Bonora E et al., 2000. Pancreatic β-Cell function (HOMA-B) was calculated according to the method of Tresaco B et al., 2005, HOMA-B=[20×[…]). Insulin sensitivity (Si) was determined according to the method of Matthews D et al., 1985. Si=[basal glucose]−[glucose 15 min]/15).

[5] = test system: female NZO mice fed a continuous high fat diet; experiment: Weight loss, comparison of macrolides; assay type: in vivo, mouse; conditions: tacrolimus 0.05 or 0.1 mg/kg, pimecrolimus 0.1 mg/kg, sirolimus 0.1 mg/kg s.c. every other day for three weeks; vs vehicle
Text: as §1

[6] = 0.1 mg/kg s.c. every other day for 3 weeks, vs vehicle

## CC[C@@H]1/C=C(\C)C[C@H](C)C[C@H](OC)[C@H]2O[C@@](O)(C(=O)C(=O)N3CCCC[C@H]3C(=O)O[C@H](/C(C)=C/[C@@H]3CC[C@H](Cl)[C@H](OC)C3)[C@H](C)[C@@H](O)CC1=O)[C@H](C)C[C@@H]2OC [pimecrolimus]
[1]
  follicular growth pattern in the ovaries: restored follicular growth pattern
[1]; p<0.001
  ovarian cyst formation: inhibited the development of ovarian cysts
[1]; vs untreated HFD-NZO
  ovarian follicular atresia: significantly inhibited ovarian follicular atresia (p<0.01)
[2]; same treatments, p<0.05
  embryonic and fetal absorption rate: significantly reduced embryonic and fetal absorption rate
[2]; tacrolimus 0.05 and 0.1 mg/kg, pimecrolimus 0.1 mg/kg, sirolimus 0.1 mg/kg s.c. every other day for three weeks
  implantation rate: significantly improved implantation rate (p<0.05)
[3]; [6]
  fasting basal serum glucose: maintained low fasting basal serum glucose and insulin levels
  fasting basal serum insulin: maintained low fasting basal serum glucose and insulin levels
[3]; 0.1 mg/kg, FIG. 17C, p=0.0001
  glucose intolerance: significantly reduced glucose intolerance although to a lesser degree than tacrolimus
[3]; tacrolimus 0.1 or 0.05 mg/kg, pimecrolimus 0.1 mg/kg, sirolimus 0.1 mg/kg s.c. every other day for 3 weeks, vs vehicle
  insulin secretion in response to a hyperglycemic challenge: significantly improved insulin secretion
[4]; p<0.001 vs vehicle
  insulin resistance (HOMA-IR): significantly reduced insulin resistance
[4]; p<0.01 vs vehicle
  insulin sensitivity (Si): enhanced insulin sensitivity
[4]; p<0.05 vs vehicle
  pancreatic β-cell function (HOMA-B): enhanced pancreatic β-cell function
[5]
  weight loss: induced statistically significant weight loss
